According to paper PMC9696832, “Pyrazole-Based Thrombin Inhibitors with a Serine-Trapping Mechanism of Action: Synthesis and Biological Activity” (Pharmaceuticals, 2022):
Read-outs that look alike come from different tables or passages of the source.

Legend:
human α-thrombin = molecular target: T1, human α-thrombin (Homo sapiens, UniProt P00734); assay: Serine protease inhibition assay, fluorogenic substrate: thrombin; format: biochemical
T1 construct: human α-thrombin (active) protein; purchased antibodies-online ABIN2127880
Protocol: Serine protease inhibition assays. The inhibitory activity of synthesized compounds towards thrombin, FXIIa, FXa, FXIa, plasmin, plasma kallikrein, chymotrypsin, and trypsin was measured by quantifying the hydrolysis rate of the fluorogenic substrate as reported previously [14, 17]. Briefly, the activity was tested in buffer (10 mM Tris-Cl, 150 mM NaCl, 10 mM MgCl2·6H2O, 1 mM CaCl2·2H2O, 0.1% w/v BSA, 0.01% v/v Triton-X100, pH = 7.4) utilizing clear flat-bottom, black polystyrene 96 well-plates. […] The fluorogenic substrate solution was added into the wells followed by the addition of 2 µL of test-compounds solution, and the reaction was triggered by addition of the enzyme solution (final testing volume–152 µL). In case of blank (substrate + buffer) and control (substrate + enzyme) wells, 2 µL of DMSO was added instead of the test-compounds’ solution. […] To derive IC50 values, endpoint RFU (single fluorescence reading) was used. Sigmoidal curves were prepared in GraphPad Prism software and IC50 values were derived from the fitted curves [14, 17].

human β-FXIIa = molecular target: T2, human β-FXIIa (Homo sapiens, UniProt P00748); assay: Serine protease inhibition assay, fluorogenic substrate: FXIIa; format: biochemical; details: read-out: Serine Protease IC50 ± SD, FXIIa
T2 construct: human β-FXIIa, HFXIIAB; purchased Molecular Innovations HFXIIAB
T2 sequence (P00748 373-615 limits assumed, other chains not shown): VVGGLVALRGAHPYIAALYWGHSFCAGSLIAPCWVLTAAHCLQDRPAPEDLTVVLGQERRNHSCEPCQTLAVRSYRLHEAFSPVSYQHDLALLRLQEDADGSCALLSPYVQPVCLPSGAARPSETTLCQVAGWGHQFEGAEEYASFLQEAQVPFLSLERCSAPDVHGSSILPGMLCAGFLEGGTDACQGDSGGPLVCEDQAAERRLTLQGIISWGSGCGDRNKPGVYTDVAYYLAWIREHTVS
Protocol: Serine protease inhibition assays. The inhibitory activity of synthesized compounds towards thrombin, FXIIa, FXa, FXIa, plasmin, plasma kallikrein, chymotrypsin, and trypsin was measured by quantifying the hydrolysis rate of the fluorogenic substrate as reported previously. Briefly, the activity was tested in buffer (10 mM Tris-Cl, 150 mM NaCl, 10 mM MgCl2·6H2O, 1 mM CaCl2·2H2O, 0.1% w/v BSA, 0.01% v/v Triton-X100, pH = 7.4) utilizing clear flat-bottom, black polystyrene 96 well-plates. […] Dilutions of test-compounds ranging from 2 nM to 32 µM (final concentrations) in DMSO were prepared. The fluorogenic substrate solution was added into the wells followed by the addition of 2 µL of test-compounds solution, and the reaction was triggered by addition of the enzyme solution (final testing volume–152 µL). In case of blank (substrate + buffer) and control (substrate + enzyme) wells, 2 µL of DMSO was added instead of the test-compounds’ solution. Fluorescence intensity was measured with Microplate Reader Mithras LB 940 (Berthold Technologies, excitation at 355 nm, emission at 460 nm) for a period of 1 h (thrombin, FXIIa, FXa, FXIa, and trypsin), 30 min (plasma kallikrein, chymotrypsin), or 15 min (plasmin) with a read every minute. The reactions were performed at 25 °C. To derive IC50 values, endpoint RFU (single fluorescence reading) was used. Sigmoidal curves were prepared in GraphPad Prism software and IC50 values were derived from the fitted curves.

[1] = read-out: Serine Protease IC50 ± SD, Thrombin
[2] = [S]0 = 25 µM Boc-Val-Pro-Arg-AMC, Km = 18 ± 1 µM, triplicate, 25 °C, read-out: Serine Protease IC50 ± SD, Thrombin

Compound | IC50 (human α-thrombin; [1]) | IC50 (human β-FXIIa) | melting point | fold more potent thrombin inhibitor than 3-phenyl-substituted counterpart 9g (human α-thrombin; IC50 165 nM vs. 1.3 μM) | IC50 (human α-thrombin; [2]) | IC50 (human α-thrombin; read-out: thrombin IC50) | thrombin inhibitory properties (in words) (human α-thrombin)
O=C(c1ccccc1I)n1nc(-c2cccnc2)cc1NCc1ccccc1 [9a, [5-(benzylamino)-3-(pyridin-3-yl)-1H-pyrazol-1-yl](2-iodophenyl)methanone] | > 5 µM | > 5 µM | 115 °C | – | – | – | –
COc1ccc(CNc2cc(-c3cccnc3)nn2C(=O)c2ccccc2I)cc1 [9b, (2-iodophenyl){5-[(4-methoxybenzyl)amino]-3-(pyridin-3-yl)-1H-pyrazol-1-yl}methanone] | > 5 µM | > 5 µM | 136 to 137 °C | – | – | – | –
O=C(c1ccccc1I)n1nc(-c2cccnc2)cc1NCc1cccc2ccccc12 [9c, (2-iodophenyl)(5-{[(naphthalen-1-yl)methyl]amino}-3-(pyridin-3-yl)-1H-pyrazol-1-yl)methanone] | > 5 µM | > 5 µM | 137 °C | – | – | – | –
O=C(c1ccccc1I)n1nc(-c2cccnc2)cc1NCc1ccco1 [9d, {5-[(furan-2-ylmethyl)amino]-3-(pyridin-3-yl)-1H-pyrazol-1-yl}(2-iodophenyl)methanone] | > 5 µM | > 5 µM | 103 to 104 °C | – | – | – | –
O=C(c1ccccc1I)n1nc(-c2cccnc2)cc1NCc1ccc(Cl)s1 [9e, (5-{[(5-chlorothiophen-2-yl)methyl]amino}-3-(pyridin-3-yl)-1H-pyrazol-1-yl)(2-iodophenyl)methanone] | 0.165 ± 0.005 µM | > 5 µM | – | about 8 fold | – | – | –
O=C(c1ccccc1I)n1nc(-c2cccnc2)cc1NCC1CCCCC1 [9f, {5-[(cyclohexylmethyl)amino]-3-(pyridin-3-yl)-1H-pyrazol-1-yl}(2-iodophenyl)methanone] | > 5 µM | > 5 µM | – | – | – | – | –
O=C(c1ccccc1I)n1nc(-c2ccccc2)cc1NCc1ccc(Cl)s1 [9g, (5-{[(5-chlorothiophen-2-yl)methyl]amino}-3-phenyl-1H-pyrazol-1-yl)(2-iodophenyl)methanone] | – | > 5 µM | 137 to 138 °C | – | 1.31 ± 0.032 µM | 1.3 µM | –
O=C(c1ccccc1I)n1nc(C2CCCCC2)cc1NCc1ccccc1 [9h, [5-(benzylamino)-3-cyclohexyl-1H-pyrazol-1-yl](2-iodophenyl)methanone] | > 5 µM | > 5 µM | – | – | – | – | –
O=C(c1ccccc1I)n1nc(C2CCCCC2)cc1NCc1ccc(Cl)s1 [9i, (5-{[(5-chlorothiophen-2-yl)methyl]amino}-3-cyclohexyl-1H-pyrazol-1-yl)(2-iodophenyl)methanone] | – | > 5 µM | – | – | > 5 µM | – | no activity
O=c1c2ccccc2n(Cc2ccccc2)c2cc(-c3cccnc3)nn12 [10a, 4-benzyl-2-(pyridin-3-yl)pyrazolo[5,1b]quinazolin-9(4H)-one] | > 5 µM | > 5 µM | 266 °C | – | – | – | –
COc1ccc(Cn2c3ccccc3c(=O)n3nc(-c4cccnc4)cc23)cc1 [10b, 4-(4-methoxybenzyl)-2-(pyridin-3-yl)pyrazolo[5,1-b]quinazolin-9(4H)-one] | > 5 µM | > 5 µM | 245 °C | – | – | – | –
O=c1c2ccccc2n(Cc2cccc3ccccc23)c2cc(-c3cccnc3)nn12 [10c, 4-[(naphthalen-1-yl)methyl]-2-(pyridin-3-yl)pyrazolo[5,1-b]quinazolin-9(4H)-one] | > 5 µM | > 5 µM | 252 °C | – | – | – | –
O=c1c2ccccc2n(Cc2ccco2)c2cc(-c3cccnc3)nn12 [10d, 4-[(furan-2-yl)methyl]-2-(pyridin-3-yl)pyrazolo[5,1-b]quinazolin-9(4H)-one] | > 5 µM | > 5 µM | 272 °C | – | – | – | –
O=c1c2ccccc2n(Cc2ccc(Cl)s2)c2cc(-c3cccnc3)nn12 [10e, 4-[(5-chlorothiophen-2-yl)methyl]-2-(pyridin-3-yl)pyrazolo[5,1-b]quinazolin-9(4H)-one] | > 5 µM | > 5 µM | 248 to 249 °C | – | – | – | –
O=c1c2ccccc2n(CC2CCCCC2)c2cc(-c3cccnc3)nn12 [10f, 4-(cyclohexylmethyl)-2-(pyridin-3-yl)pyrazolo[5,1-b]quinazolin-9(4H)-one] | > 5 µM | > 5 µM | – | – | – | – | –
O=c1c2ccccc2n(Cc2ccc(Cl)s2)c2cc(-c3ccccc3)nn12 [10g, 4-[(5-chlorothiophen-2-yl)methyl]-2-phenylpyrazolo[5,1-b]quinazolin-9(4H)-one] | > 5 µM | > 5 µM | – | – | – | – | –
O=c1c2ccccc2n(Cc2ccccc2)c2cc(C3CCCCC3)nn12 [10h, 4-benzyl-2-cyclohexylpyrazolo[5,1-b]quinazolin-9(4H)-one] | > 5 µM | > 5 µM | 180 to 181 °C | – | – | – | –
